In patent US20090318396A1, “CORTICOSTEROID LINKED BETA-AGONIST COMPOUNDS FOR USE IN THERAPY” (priority 2008, published 2009):

Columns and labels:
[1] = tested on: ovalbumin-induced lung inflammation; experiment: Mouse ovalbumin model of lung inflammation; assay type: in vivo, Mice (Balb/c); conditions: mouse OVA
Experimental: Mice (Balb/c) were immunized by intraperitoneal injection of ovalbumin (10 μg OVA suspended in 2 mg aluminum hydroxide) on day 0 and 7. One group was sensitized and treated with vehicle (NSV). One group was immunized with sterile water only and treated with vehicle, e.g. to serve as a nonsensitized (negative) control (Vehicle). […] On days 14 and 15, the animals were exposed to OVA by inhalation (3 h; 5 mg/m^3). Forty eight hours following the last OVA challenge (day 17) mice were sacrificed. Bronchoalveolar lavage (BAL) was taken from each animal to collect cells and fluid. Cell numbers and differentials were calculated from BAL.

[2] = tested on: LPS-induced airway inflammation; experiment: LPS-induced airway inflammation in rats; assay type: in vivo, Male Fischer 344 rats; conditions: for TNFα / Neutrophils: rat BAL, mean ± s.e.m.
Experimental: Example 52 was evaluated in an LPS-induced airway inflammation model in rats. Male Fischer 344 rats (n 8/group) were treated with either vehicle or test article by intratracheal instillation in […] volume 1 hour prior to LPS challenge. Animals were then exposed to LPS by nose-only inhalation exposure for 10 minutes at 5 mg/m^3 resulting in an estimated 5 μg lung deposition. Animals were sacrificed 4 hours after LPS exposure. Lungs were lavaged for bronchoalveolar lavage cell differentials and cytokine analysis by Luminex multiplex immunoassay.

[3] = tested on: airway epithelial cells cultured at an air-liquid interface; experiment: Drug metabolism in airway epithelial cells cultured at an air-liquid interface; assay type: in vitro ADME, human
Experimental: Cryopreserved passage 1 cells were cultured in bronchial epithelial growth medium (Fulcher, M. L., et al., Well-differentiated human airway epithelial cell cultures. Methods Mol Med, 2005. 107: p. 183-206) on 100 mm Type I collagen-coated plastic dishes. At 70% confluence, passage 2 cells were transferred to type IV collagen-coated Millicell membranes (Millipore, Bedford, Mass.) in medium that supports growth at an air-liquid-interface (ALI) (Fulcher er al., 2005). Cells were maintained at an ALI and allowed to differentiate fully for approximately 28 days. […] Approximately 1 hour prior to the start of the experiment, the apical surfaces of the cells were washed once again with PBS and the basolateral media replaced with fresh ALI media. At time=0 hrs, the test article was diluted from a 10 mM stock solution in DMSO to a 40 μM solution in ALI media/PBS/10% EtOH/water (v/v). 50 μl of the resulting 40 μM solution was immediately added to the apical surface of the cells. 200 μl of the dosing solution was also added to 800 μl of 100% ACN and frozen immediately on dry ice. The remaining dosing solution was placed in the incubator with the cells. The dosing solution and cells were allowed to incubate for 10, 120 and 240 min at which points the apical surfaces of cells from 4 millicell cell culture inserts (n=4) were washed with 3×100 μl of PBS or 10% EtOH/water (v/v) per millicell. […]

[4] = tested on: carbachol-induced bronchoconstriction; experiment: Carbachol-induced bronchoconstriction in sheep; assay type: in vivo; conditions: Example 52 4.7 mg, Salmeterol 2.5 mg, mean ± s.e.m, n=4
Experimental: Bronchoconstriction was evaluated as a function of increased pulmonary resistance following carbachol challenge. […] Test article was administered either by a pre-dosing or duration of action protocol. In the pre-dosing regimen, animals were dosed once daily for four days, with the last dose administered 1 hr before carbachol challenge. In the duration of action regimen, animals were dosed once daily for four days, with the last dose administered 24 hours before carbachol challenge. Test article and carbachol were administered by nebulized aerosol to intubated sheep.

[5] = tested on: ragweed-induced bronchoconstriction; experiment: Ragweed-induced bronchoconstriction in dogs; assay type: in vivo, beagle dogs; conditions: mean ± s.e.m.
Experimental: The compound of Example 52 was assesed for bronchodilator activity in a ragweed-induced bronchoconstriction model in beagle dogs. Dogs were mechanically ventilated during each experiment. Airflow and tidal volume were measured using a differential pressure transducer located in front of the endotracheal tube. An esophageal balloon catheter placed in the esophagus was used to determine transpulmonary pressure. Pulmonary resistance and dynamic lung compliance were calculated from the simultaneous measurement of transpulmonary pressure and respiratory flow. The canine exposure system was designed to expose an anesthetized animal via an intubation tube. Dogs were administered vehicle or test article by inhalation 30 minutes before ragweed antigen exposure (n=4). Dogs were challenged with ragweed antigen (ragweed short, Ambrosia artemisifolia, Greer, Lenoir, N.C.) by inhalation (5 breaths). Immediately following ragweed challenge, changes in pulmonary resistance and compliance were measured for up to 30 minutes.

[6] = Drug levels in plasma, BALF and lung after IT administration in the rat; conditions: IT
Experimental: Compounds of Examples 52 and 83 were formulated for intratracheal (IT) dosing in 10% EtOH, 90% Sterile Water, and dosed in male Sprague-Dawley rats at 3 mg/kg (Example 52) and 1 mg/kg (Example 83). Each dosing group consisted of 3 male, naïve purebred Sprague-Dawley rats. At dosing, the animals weighed ˜0.30 kg. The animals were fasted overnight prior to dose administration and up to 2 hr after dosing. The compounds were administered IT using a Penn Century Microsprayer (Model 1A-1B).
Blood samples were collected at 0.5, 2, and 4 hours post-dose. Each blood sample (0.5-0.6 mL per sample) was collected via the orbital sinus (following anesthesia for BAL procedure) into tubes containing EDTA anti-coagulant into containers surrounded by dry ice at 0.5, 2 and 4 hr (mean, n=6). Blood samples were stored at −20±5° C. until shipped for analysis.
The animals were anesthetized with an intramuscular (IM) injection of a ketamine/xylazine/acepromazine (80/10/2 mg/kg) cocktail at a dose volume of 1.1 mL/kg. A cannula (modified Bard® infant feeding tube) was inserted into the trachea. Warmed sterile saline was injected into the lungs. The lungs were gently massaged by palpation of the chest for approximately 45 seconds. The fluid (BALF) was recovered and placed on ice. The procedure was repeated two more times, and all three BALF samples pooled. The fluid was centrifuged under refrigerated conditions at 350 g for 10 minutes. The supernatant and cell pellet were collected and stored at approximately −70° C. until shipped for analysis.
Immediately following each BAL procedure, the lungs from each animal were removed, blotted dry, weighed, and stored frozen at −70° C. until shipped for analysis.
An LC/MS/MS method was used to measure the concentration of compound in plasma.
Add 3×w/v of 1×PBS buffer (90:10-PBS:ACN) to each lung tissue. Homogenize the sample w/Polytron (PT1200) and take 50 uL of supernatant and inject to LC/MSMS.
An aliquot of 50 μL of each plasma sample was treated with 100 mL of acetonitrile (ACN) containing internal standard. After the protein precipitation, an aliquot of 100 μL of the supernatant was transferred to a clean 96-well plate and mixed with 100 μL of water. An aliquot of 30 μL of the above solution was injected to the TSQ Ultra Quantum LC/MS/MS system.
A HyPurity C18 HPLC column (30×2.1 mm, 5μ) from ThermoHypersil (Part #: 22105-032130) was used. Mobile phase A contained 1% acetonitrile in 10 mM ammonium formate aqueous solution with 1% formic acid. Mobile phase B contained 80% acetonitrile in 10 mM ammonium formate with 1% formic acid. An Agilent 1100 series binary pump (P/N G1312A Bin Pump) was used for elution and separation. HTS Pal autosampler from LEAP Technologies, Carrboro, N.C. was used.
TSQ Quantum Ultra triple quadrupole mass spectrometer from Thermo Finnigan, San Jose, Calif. was used in selective reaction monitoring (SRM) operation mode, Tune file:

[7] = 3.0 mg/kg IT, 1x/day day 14 and 15

With CC[N+](CC)(CC(=O)OCC(=O)[C@@]12O[C@H](C3CCCCC3)O[C@@H]1C[C@H]1[C@@H]3CCC4=CC(=O)C=C[C@]4(C)[C@H]3[C@@H](O)C[C@@]12C)Cc1cc(C(O)CNCCCCCCOCCCCc2ccccc2)ccc1OP(=O)(O)O.[Cl-] (stereo partly drawn) [Example 52, [5-[1-hydroxy-2-[6-(4-phenylbutoxy)hexylamino]ethyl]-2-phosphonooxybenzyl]-(diethyl)-[[11β,16α]-[[15,16-((R)-cyclohexylmethylene)bis(oxy)]-11-hydroxypregna-1,4-diene-3,20-dion-21-yl]carbonylmethyl]ammonium chloride] the “Eosinophils in BAL, Mean” value ([1]; 0.6 mg/kg IT) was 367580 mL⁻¹, the “Neutrophils in BAL, Mean” value ([1]; 0.6 mg/kg IT) was 7270 mL⁻¹ and the “Eosinophils in BAL, Mean” value ([1]; 1.0 mg/kg IT) was 163320 mL⁻¹. The “Neutrophils in BAL, Mean” value ([1]; 1.0 mg/kg IT) was 5340 mL⁻¹, the “Eosinophils in BAL, Mean” value [1, 7] was 57420 mL⁻¹ and the “Neutrophils in BAL, Mean” value [1, 7] was 10370 mL⁻¹. For the same molecule, the TNFα ([2]; 0.6 mg/kg intratracheal) was 293.6 ± 40.6 pg/mL, the TNFα ([2]; 1 mg/kg intratracheal) was 361.7 ± 56.6 pg/mL and the Neutrophils ([2]; 3 mg/kg intratracheal, 1 hour prior to LPS) was 13.5 ± 0.92 × 10^4/ml. The TNFα ([2]; 3 mg/kg intratracheal) was 307.0 ± 60.0 pg/mL, the Neutrophils ([2]; 6 mg/kg intratracheal) was 6.4 ± 0.41 × 10^4/ml and the “Inhibition of LPS-induced airway inflammation measured as neutrophil influx and TNFα production” value ([2]; at doses tested, versus vehicle control) was “significantly inhibit”. The “amount of the parent compound over time” value ([3]; apical and cellular compartments) was “decreased over time”, the “amount of salmeterol and desciclesonide over time” value ([3]; cellular compartment) was “increased in the cellular compartment” and the “Lung Resistance (% Increase) at 2% Carbachol” value ([4]; Duration of action regimen (last dose 24 hours before carbachol), Ciclesonide 2.2 mg + Salmeterol Xinafoate 2.5 mg) was 450 ± 36 % Increase. For the same molecule, the “Lung Resistance (% Increase) at 2% Carbachol” value ([4]; Predosing regimen (last dose 1 hr before carbachol)) was 335 ± 38 % Increase, the “Pulmonary Resistance (% of Baseline)” value ([5]; 6 μg/kg by inhalation) was 266.1 ± 19.6 % of Baseline and the “Pulmonary Resistance (% of Baseline)” value ([5]; 20 μg/kg by inhalation) was 181.2 ± 11.5 % of Baseline. For the same molecule, the “Metabolism in the lung following IT administration” value [6] was “metabolized to Salmeterol and Desisobutyryl Ciclesonide in the lung”.
